The source of these data is paper PMC6934825 (Scientific Reports, 2019).

Entries after “also recorded” stand apart in the source; their conditions may differ.

The conditions of data set [1]: plasma in vitro; cited from earlier work.
The conditions of data set [2]: clinical trials, acute respiratory distress syndrome; cited from earlier work.
A short description of data set [3]: in vivo study in male rats. The note with it: cited from earlier work.
The conditions of data set [4]: human, up to 120 minutes.

With `CSCC[C@H](NC(=O)[C@@H]1CCCN1C(=O)CNC(=O)[C@H](CCCCN)NC(=O)[C@H](Cc1cnc[nH]1)NC(=O)[C@H](CO)NC(=O)[C@H](CC(C)C)NC(=O)[C@H](CCCNC(=N)N)NC(=O)[C@@H]1CCCN1C(=O)[C@H](CCCNC(=N)N)NC(=O)[C@@H]1CCC(=O)N1)C(=O)N1CCC[C@H]1C(=O)N[C@@H](Cc1ccccc1)C(=O)O` [[Pyr^1]apelin-13], the “degradation in rat and mouse plasma compared to dog, monkey and human plasma” value in data set [1] was “more rapid degradation”.
Take “GSK2586881: recombinant human ACE2 for treatment of acute respiratory distress syndrome”: the tolerability entry in data set [2] was “well-tolerated”.
Regarding “pGlu Arg Pro Arg Leu Ser His Lys Gly Pro Met Pro Phe”, the fragment found result in data set [3] is “[Pyr^1]apelin-13(1–12); also recorded: [Pyr^1]apelin-13(1–10); also recorded: [Pyr^1]apelin-13(1–6)”. Moreover, the cleaved bond entry in data set [4] was “Pro10-Met11, major, 120 minutes; also recorded: Ser6-His7, major, 120 minutes; also recorded: Leu5-Ser6, 120 minutes”.
